From ChEMBL document CHEMBL3046559, “Sterile oat (Avena sterilis L.) cross-resistance profile to ACCase-inhibiting herbicides in Greece” (2012)

Columns and labels:
Type in all cases: functional
Avena sterilis [1] = experiment: Herbicidal activity against Avena sterilis accession P22 assessed as weed survival at 32 times field recommended herbicide dose
Avena sterilis [2] = experiment: Herbicidal activity against Avena sterilis accession P22 assessed as induction of weed mortality
Avena sterilis [3] = experiment: Herbicidal activity against Avena sterilis accession P19S assessed as induction of weed mortality
Avena sterilis [4] = experiment: Herbicidal activity against Avena sterilis accession P01 assessed as weed survival at 1 times field recommended herbicide dose
Avena sterilis [5] = experiment: Herbicidal activity against Avena sterilis accession P05 assessed as weed survival at 1 times field recommended herbicide dose
Avena sterilis [6] = experiment: Herbicidal activity against Avena sterilis accession P16 assessed as weed survival at 4 times field recommended herbicide dose
Avena sterilis [7] = experiment: Herbicidal activity against Avena sterilis accession P17 assessed as weed survival at 4 times field recommended herbicide dose
Avena sterilis [8] = experiment: Herbicidal activity against Avena sterilis accession P21S assessed as weed survival at 1/4 times field recommended herbicide dose
Avena sterilis [9] = experiment: Herbicidal activity against Avena sterilis accession P06S assessed as weed survival at 1/8 times field recommended herbicide dose
Avena sterilis [10] = experiment: Herbicidal activity against Avena sterilis accession P14 assessed as induction of weed mortality
Avena sterilis [11] = experiment: Herbicidal activity against Avena sterilis accession P01 assessed as weed survival at 16 times field recommended herbicide dose
Avena sterilis [12] = experiment: Herbicidal activity against Avena sterilis accession P07 assessed as weed survival at 16 times field recommended herbicide dose
Avena sterilis [13] = experiment: Herbicidal activity against Avena sterilis accession P21S assessed as weed survival at 1/16 times field recommended herbicide dose
Avena sterilis [14] = experiment: Herbicidal activity against Avena sterilis accession P17 assessed as weed survival at 8 times field recommended herbicide dose
Avena sterilis [15] = experiment: Herbicidal activity against Avena sterilis accession P04 assessed as induction of weed mortality
Avena sterilis [16] = experiment: Herbicidal activity against Avena sterilis accession P12 assessed as weed survival at 32 times field recommended herbicide dose
Avena sterilis [17] = experiment: Herbicidal activity against Avena sterilis accession P07 assessed as weed survival at 32 times field recommended herbicide dose
Avena sterilis [18] = experiment: Herbicidal activity against Avena sterilis accession P18 assessed as weed survival at 1 times field recommended herbicide dose
Avena sterilis [19] = experiment: Herbicidal activity against Avena sterilis accession P10S assessed as induction of weed mortality
Avena sterilis [20] = experiment: Herbicidal activity against Avena sterilis accession P18 assessed as weed survival at 16 times field recommended herbicide dose
Avena sterilis [21] = experiment: Herbicidal activity against Avena sterilis accession P06S assessed as induction of weed mortality
Avena sterilis [22] = experiment: Herbicidal activity against Avena sterilis accession P21S assessed as weed survival at 1/8 times field recommended herbicide dose
Avena sterilis [23] = experiment: Herbicidal activity against Avena sterilis accession P18 assessed as weed survival at 32 times field recommended herbicide dose
Avena sterilis [24] = experiment: Herbicidal activity against Avena sterilis accession P05 assessed as induction of weed mortality
Avena sterilis [25] = experiment: Herbicidal activity against Avena sterilis accession P17 assessed as weed survival at 16 times field recommended herbicide dose
Avena sterilis [26] = experiment: Herbicidal activity against Avena sterilis accession P15 assessed as induction of weed mortality
Avena sterilis [27] = experiment: Herbicidal activity against Avena sterilis accession P15 assessed as weed survival at 32 times field recommended herbicide dose
Avena sterilis [28] = experiment: Herbicidal activity against Avena sterilis accession P18 assessed as induction of weed mortality
Avena sterilis [29] = experiment: Herbicidal activity against Avena sterilis accession P06S assessed as weed survival at 1/32 times field recommended herbicide dose
Avena sterilis [30] = experiment: Herbicidal activity against Avena sterilis accession P18 assessed as weed survival at 4 times field recommended herbicide dose
Avena sterilis [31] = experiment: Herbicidal activity against Avena sterilis accession P03 assessed as induction of weed mortality
Avena sterilis [32] = experiment: Herbicidal activity against Avena sterilis accession P05 assessed as weed survival at 8 times field recommended herbicide dose
Avena sterilis [33] = experiment: Herbicidal activity against Avena sterilis accession P17 assessed as induction of weed mortality
Avena sterilis [34] = experiment: Herbicidal activity against Avena sterilis accession P12 assessed as weed survival at 1 times field recommended herbicide dose
Avena sterilis [35] = experiment: Herbicidal activity against Avena sterilis accession P21S assessed as induction of weed mortality
Avena sterilis [36] = experiment: Herbicidal activity against Avena sterilis accession P15 assessed as weed survival at 1 times field recommended herbicide dose
Avena sterilis [37] = experiment: Herbicidal activity against Avena sterilis accession P17 assessed as weed survival at 1 times field recommended herbicide dose
Avena sterilis [38] = experiment: Herbicidal activity against Avena sterilis accession P09 assessed as weed survival at 1 times field recommended herbicide dose
Avena sterilis [39] = experiment: Herbicidal activity against Avena sterilis accession P09 assessed as weed survival at 16 times field recommended herbicide dose
Avena sterilis [40] = experiment: Herbicidal activity against Avena sterilis accession P12 assessed as weed survival at 8 times field recommended herbicide dose
Avena sterilis [41] = experiment: Herbicidal activity against Avena sterilis accession P04 assessed as weed survival at 4 times field recommended herbicide dose
Avena sterilis [42] = experiment: Herbicidal activity against Avena sterilis accession P21S assessed as weed survival at 1 times field recommended herbicide dose
Avena sterilis [43] = experiment: Herbicidal activity against Avena sterilis accession P05 assessed as weed survival at 32 times field recommended herbicide dose
Avena sterilis [44] = experiment: Herbicidal activity against Avena sterilis accession P03 assessed as weed survival at 8 times field recommended herbicide dose
Avena sterilis [45] = experiment: Herbicidal activity against Avena sterilis accession P22 assessed as weed survival at 16 times field recommended herbicide dose
Avena sterilis [46] = experiment: Herbicidal activity against Avena sterilis accession P10S assessed as weed survival at 1/32 times field recommended herbicide dose
Avena sterilis [47] = experiment: Herbicidal activity against Avena sterilis accession P02 assessed as weed survival at 32 times field recommended herbicide dose
Avena sterilis [48] = experiment: Herbicidal activity against Avena sterilis accession P20 assessed as weed survival at 16 times field recommended herbicide dose
Avena sterilis [49] = experiment: Herbicidal activity against Avena sterilis accession P08 assessed as weed survival at 32 times field recommended herbicide dose
Avena sterilis [50] = experiment: Herbicidal activity against Avena sterilis accession P07 assessed as weed survival at 1 times field recommended herbicide dose
Avena sterilis [51] = experiment: Herbicidal activity against Avena sterilis accession P10S assessed as weed survival at 1 times field recommended herbicide dose
Avena sterilis [52] = experiment: Herbicidal activity against Avena sterilis accession P15 assessed as weed survival at 16 times field recommended herbicide dose
Avena sterilis [53] = experiment: Herbicidal activity against Avena sterilis accession P19S assessed as weed survival at 1/8 times field recommended herbicide dose
Avena sterilis [54] = experiment: Herbicidal activity against Avena sterilis accession P13S assessed as weed survival at 1/16 times field recommended herbicide dose
Avena sterilis [55] = experiment: Herbicidal activity against Avena sterilis accession P14 assessed as weed survival at 16 times field recommended herbicide dose
Avena sterilis [56] = experiment: Herbicidal activity against Avena sterilis accession P11 assessed as weed survival at 16 times field recommended herbicide dose
Avena sterilis [57] = experiment: Herbicidal activity against Avena sterilis accession P12 assessed as induction of weed mortality
Avena sterilis [58] = experiment: Herbicidal activity against Avena sterilis accession P03 assessed as weed survival at 16 times field recommended herbicide dose

COCc1cnc(C2=NC(C)(C(C)C)C(=O)N2)c(C(=O)O)c1 (stereo not drawn) [IMAZAMOX]
Survival (Avena sterilis [1]): 0%
GR50 (Avena sterilis [2]): <50 gAi/ha
GR50 (Avena sterilis [3]): 14 gAi/ha
Survival (Avena sterilis [4]): 0%
Survival (Avena sterilis [5]): 0%
Survival (Avena sterilis [6]): 0%
Survival (Avena sterilis [7]): 0%
Survival (Avena sterilis [8]): 60%
Survival (Avena sterilis [9]): 57%
GR50 (Avena sterilis [10]): <50 gAi/ha
Survival (Avena sterilis [11]): 0%
Survival (Avena sterilis [12]): 0%
Survival (Avena sterilis [13]): 97%
Survival (Avena sterilis [14]): 0%
GR50 (Avena sterilis [15]): <50 gAi/ha
Survival (Avena sterilis [16]): 0%
Survival (Avena sterilis [17]): 0%
Survival (Avena sterilis [18]): 0%
GR50 (Avena sterilis [19]): 7 gAi/ha
Survival (Avena sterilis [20]): 0%
GR50 (Avena sterilis [21]): 9 gAi/ha
Survival (Avena sterilis [22]): 87%
Survival (Avena sterilis [23]): 0%
GR50 (Avena sterilis [24]): <50 gAi/ha
Survival (Avena sterilis [25]): 0%
GR50 (Avena sterilis [26]): <50 gAi/ha
Survival (Avena sterilis [27]): 0%
GR50 (Avena sterilis [28]): <50 gAi/ha
Survival (Avena sterilis [29]): 97%
Survival (Avena sterilis [30]): 0%
GR50 (Avena sterilis [31]): <50 gAi/ha
Survival (Avena sterilis [32]): 0%
GR50 (Avena sterilis [33]): <50 gAi/ha
Survival (Avena sterilis [34]): 0%
GR50 (Avena sterilis [35]): 14 gAi/ha
Survival (Avena sterilis [36]): 0%
Survival (Avena sterilis [37]): 3%
Survival (Avena sterilis [38]): 0%
Survival (Avena sterilis [39]): 0%
Survival (Avena sterilis [40]): 0%
Survival (Avena sterilis [41]): 0%
Survival (Avena sterilis [42]): 0%
Survival (Avena sterilis [43]): 0%
Survival (Avena sterilis [44]): 0%
Survival (Avena sterilis [45]): 0%
Survival (Avena sterilis [46]): 100%
Survival (Avena sterilis [47]): 0%
Survival (Avena sterilis [48]): 0%
Survival (Avena sterilis [49]): 0%
Survival (Avena sterilis [50]): 0%
Survival (Avena sterilis [51]): 0%
Survival (Avena sterilis [52]): 0%
Survival (Avena sterilis [53]): 80%
Survival (Avena sterilis [54]): 80%
Survival (Avena sterilis [55]): 0%
Survival (Avena sterilis [56]): 0%
GR50 (Avena sterilis [57]): <50 gAi/ha
Survival (Avena sterilis [58]): 0%
